Here are results for twelve compounds from patent publication US7135457B1, “Random peptides that bind to gastro-intestinal tract (GIT) transport receptors and related methods” (Cytogen Corporation, priority 1997, dated 2006).

The assay relates to P100 membrane fractions derived from Caco-2 cells. Put plainly: Dansylated peptide ELISA on P100: PAX2 and HAX42 peptides relative binding. On the procedure: The peptides and proteins were analyzed by a dansylated peptide ELISA method in which 96 well plates were coated overnight at 4° C. with 100 μl/well coating protein (normally 100 μg/ml P100 membrane fraction) in 0.05M carbonate buffer pH9.6. Nonspecific binding was blocked using 200 μl/well, 2% Marvel/PBS for 2 hours at 37° C. prior to incubation with dansylated peptides. The plates were washed three times with PBS/0.05% Tween 20 and after each subsequent incubation step. […] A buffer blank control was included to ensure that background binding to plastic was not due to the antibodies used in the assay system. […] The plates were then incubated with an anti-mouse λ-HRP conjugated antibody (Southern Biotech 1060-05) at a 1:10,000 dilution in blocking solution, 100 μl/well for 1 hour at room temperature. Plates were developed using 75 μl/well Bionostics TMB substrate and incubated for approximately 10 minutes. The developing reaction was stopped using Bionostics Red Stop solution (25 μl/well), and the optical density of the plates was read at 650 nm.
On the technique in general: In an ELISA, binding on a coated surface is turned into a signal by an enzyme label.

Where [1] appears, read: PAX2 peptides, ratio to ZElan021 (HAX42 = 1.00), second 20 μg/ml column.
[2] abbreviates: PAX2 peptides, ratio to ZElan021 (HAX42 = 1.00), second 50 μg/ml column.
[3] abbreviates: HAX42 peptides, ratio to ZElan021 (arbitrary 1.00).
Setting [4] is: HAX42 peptides, ratio to ZElan021 (arbitrary 1.00), first 50 μg/ml column.
The mark [5] stands for this setting: HAX42 peptides, ratio to ZElan021 (arbitrary 1.00), second 50 μg/ml column.
[6] abbreviates: PAX2 peptides, ratio to ZElan021 (HAX42 = 1.00), first 20 μg/ml column.
Setting [7] is: PAX2 peptides, ratio to ZElan021 (HAX42 = 1.00), first 50 μg/ml column.

Peptide text beside a SMILES is read from it. * marks the point of attachment. Dansyl = CN(C)c1cccc2c(S(=O)(=O)*)cccc12

`CC(C)C[C@H](NC(=O)[C@H](CCCNC(=N)N)NC(=O)[C@H](CO)NC(=O)[C@@H](NC(=O)[C@H](CCCCN)NC(=O)[C@H](CC(N)=O)NC(=O)[C@H](CCCNC(=N)N)NC(=O)[C@@H](NC(=O)[C@H](CC(N)=O)NC(=O)[C@H](CCCNC(=N)N)NC(=O)[C@@H](N)CCCCNS(=O)(=O)c1cccc2c(N(C)C)cccc12)[C@@H](C)O)[C@@H](C)O)C(=O)N[C@@H](CO)C(=O)N[C@@H](C)C(=O)N[C@@H](CC(N)=O)C(=O)N1CCC[C@H]1C(=O)N[C@@H](Cc1c[nH]cn1)C(=O)N[C@@H](CCCNC(=N)N)C(=O)N[C@@H](CO)C(=O)N[C@@H](Cc1c[nH]cn1)C(=O)N[C@@H](CCCNC(=N)N)C(N)=O` [ZElan084] (H-K(Dansyl)RNTRNKTSRLSANPHRSHR-NH2): the “Binding value at 20 μg/ml” value under setting [1] turned out to be 0.93. Under setting [2], the “Binding value at 50 μg/ml” value came to 0.77.
Take `CC(C)[C@H](NC(=O)[C@H](CCCCN)NC(=O)[C@H](CCCNC(=N)N)NC(=O)[C@@H](N)CCCCNS(=O)(=O)c1cccc2c(N(C)C)cccc12)C(=O)N[C@@H](Cc1ccccc1)C(=O)N[C@@H](CC(N)=O)C(=O)N[C@@H](CCCNC(=N)N)C(=O)N[C@@H](CCCNC(=N)N)C(=O)N[C@@H](CCCNC(=N)N)C(=O)N1CCC[C@H]1C(=O)N[C@@H](CO)C(N)=O` [ZElan065] (H-K(Dansyl)RKVFNRRRPS-NH2): the “Binding value at 20 μg/ml” value under setting [3] was determined as 0.00. The “Binding value at 50 μg/ml” value turned out to be 0.54 under setting [4] and 0.30 under setting [5].
Turning to `CC(C)C[C@H](NC(=O)[C@H](CCCNC(=N)N)NC(=O)[C@H](CCCNC(=N)N)NC(=O)[C@@H](N)CCCCNS(=O)(=O)c1cccc2c(N(C)C)cccc12)C(=O)N[C@@H](CCCNC(=N)N)C(=O)N[C@H](C(=O)N[C@@H](CCCNC(=N)N)C(N)=O)[C@@H](C)O` [ZElan058, H2N-K(dns)RRLRTR-CONH2] (H-K(Dansyl)RRLRTR-NH2), the “Binding value at 20 μg/ml” value under setting [6] turned out to be 0.05. Moreover, the “Binding value at 50 μg/ml” value is, setting by setting: under setting [7], 0.47; under setting [2], 0.16.
Take `CC(C)C[C@H](NC(=O)[C@H](CCCNC(=N)N)NC(=O)[C@H](CCCNC(=N)N)NC(=O)[C@H](CC(N)=O)NC(=O)[C@H](Cc1c[nH]cn1)NC(=O)[C@H](CO)NC(=O)[C@H](CO)NC(=O)[C@@H](N)CCCCNS(=O)(=O)c1cccc2c(N(C)C)cccc12)C(=O)N[C@@H](CCCNC(=N)N)C(=O)N[C@H](C(=O)N[C@@H](C)C(N)=O)[C@@H](C)O` [ZElan082] (H-K(Dansyl)SSHNRRLRTA-NH2): under setting [6], the “Binding value at 20 μg/ml” value was 0.00. For the same compound, the “Binding value at 50 μg/ml” value is, setting by setting: under setting [7], 0.92; under setting [2], 0.40.
Consider `CC(C)C[C@H](NC(=O)[C@H](CCCNC(=N)N)NC(=O)[C@H](CCCNC(=N)N)NC(=O)[C@H](CC(N)=O)NC(=O)[C@H](Cc1c[nH]cn1)NC(=O)[C@H](CO)NC(=O)[C@H](CO)NC(=O)[C@H](Cc1c[nH]cn1)NC(=O)[C@H](CCCCN)NC(=O)[C@H](C)NC(=O)[C@H](CC(N)=O)NC(=O)[C@@H](NC(=O)[C@@H](N)CCCCNS(=O)(=O)c1cccc2c(N(C)C)cccc12)[C@@H](C)O)C(=O)N[C@@H](CCCNC(=N)N)C(=O)N[C@H](C(=O)N[C@@H](CCCNC(=N)N)C(N)=O)[C@@H](C)O` [ZElan033] (H-K(Dansyl)TNAKHSSHNRRLRTR-NH2), for which, under setting [6], the “Binding value at 20 μg/ml” value came out at 0.35. Also, the “Binding value at 50 μg/ml” value turned out to be 0.80 under setting [7] and 0.66 under setting [2].
Take “H-K(Dansyl)SDHALGTNLRSDNAKEPGDYNCCGNGNSTGRKVFNRRRPSAIPT-NH2 (cysteines drawn unpaired) [ZElan021]”: the “Binding value at 20 μg/ml” value under setting [3] is listed as 1.00. Further, the “Binding value at 25 μg/ml” value (HAX42 peptides, ratio to ZElan021 (arbitrary 1.00), first 25 μg/ml column) stood at 1.00; the “Binding value at 25 μg/ml” value (HAX42 peptides, ratio to ZElan021 (arbitrary 1.00), second 25 μg/ml column) was found to be 1.00; the “Binding value at 25 μg/ml” value (HAX42 peptides, ratio to ZElan021 (arbitrary 1.00), third 25 μg/ml column) stood at 1.00. In addition, the “Binding value at 50 μg/ml” value runs as follows: under setting [4], 1.00; under setting [5], 1.00.
In the case of `CC(C)C[C@H](NC(=O)[C@H](CCCNC(=N)N)NC(=O)[C@H](CCCNC(=N)N)NC(=O)[C@H](CC(N)=O)NC(=O)[C@H](Cc1c[nH]cn1)NC(=O)[C@H](CO)NC(=O)[C@H](CO)NC(=O)[C@@H](N)CCCCNS(=O)(=O)c1cccc2c(N(C)C)cccc12)C(=O)N[C@@H](CCCNC(=N)N)C(=O)N[C@@H](C)C(=O)N[C@@H](CCCNC(=N)N)C(N)=O` [ZElan081] (H-K(Dansyl)SSHNRRLRAR-NH2), the “Binding value at 20 μg/ml” value under setting [6] was 0.01. Also, the “Binding value at 50 μg/ml” value is listed as 0.89 under setting [7] and 0.47 under setting [2].
Regarding `C[C@H](NC(=O)[C@H](CC(N)=O)NC(=O)[C@@H](NC(=O)[C@@H](N)CCCCNS(=O)(=O)c1cccc2c(N(C)C)cccc12)[C@@H](C)O)C(=O)N[C@@H](CCCCN)C(=O)N[C@@H](Cc1c[nH]cn1)C(=O)N[C@@H](CO)C(=O)N[C@@H](CO)C(=O)N[C@@H](Cc1c[nH]cn1)C(=O)N[C@@H](CC(N)=O)C(N)=O` [ZElan055] (H-K(Dansyl)TNAKHSSHN-NH2), the “Binding value at 20 μg/ml” value under setting [6] is on record as 0.99 and the “Binding value at 20 μg/ml” value under setting [1] is listed as 0.73. Also, the “Binding value at 50 μg/ml” value under setting [7] is recorded as 1.10 and the “Binding value at 50 μg/ml” value under setting [2] is reported as 0.59.
As to `CC(C)C[C@H](NC(=O)[C@H](CCCNC(=N)N)NC(=O)[C@H](CCCNC(=N)N)NC(=O)[C@@H](N)CCCCNS(=O)(=O)c1cccc2c(N(C)C)cccc12)C(=O)N[C@@H](CCCNC(=N)N)C(=O)N[C@H](C(=O)N[C@@H](CCCNC(=N)N)C(=O)N[C@@H](CO)C(=O)N[C@@H](CCCNC(=N)N)C(N)=O)[C@@H](C)O` [ZElan057] (H-K(Dansyl)RRLRTRSR-NH2), under setting [6], the “Binding value at 20 μg/ml” value is 0.08. The “Binding value at 50 μg/ml” value is given as 0.56 under setting [7] and 0.25 under setting [2].
With `CC(C)C[C@H](NC(=O)[C@H](C)NC(=O)[C@H](Cc1c[nH]cn1)NC(=O)[C@H](CC(=O)O)NC(=O)[C@H](CO)NC(=O)[C@@H](N)CCCCNS(=O)(=O)c1cccc2c(N(C)C)cccc12)C(=O)NCC(=O)N[C@H](C(=O)N[C@@H](CC(N)=O)C(=O)N[C@@H](CC(C)C)C(=O)N[C@@H](CCCNC(=N)N)C(=O)N[C@@H](CO)C(=O)N[C@@H](CC(=O)O)C(=O)N[C@@H](CC(N)=O)C(=O)N[C@@H](C)C(=O)N[C@@H](CCCCN)C(=O)N[C@@H](CCC(=O)O)C(=O)N1CCC[C@H]1C(=O)NCC(=O)N[C@@H](CC(=O)O)C(=O)N[C@@H](Cc1ccc(O)cc1)C(=O)N[C@@H](CC(N)=O)C(=O)N[C@@H](CS)C(=O)N[C@@H](CS)C(=O)NCC(=O)N[C@@H](CC(N)=O)C(=O)NCC(N)=O)[C@@H](C)O` [ZElan060] (H-K(Dansyl)SDHALGTNLRSDNAKEPGDYNCCGNG-NH2), under setting [3], the “Binding value at 20 μg/ml” value is 0.44. The “Binding value at 50 μg/ml” value runs as follows: under setting [4], 0.56; under setting [5], 0.43.
In the same order, the values of `CC[C@H](C)[C@H](NC(=O)[C@H](C)NC(=O)[C@H](CO)NC(=O)[C@@H]1CCCN1C(=O)[C@H](CCCNC(=N)N)NC(=O)[C@H](CCCNC(=N)N)NC(=O)[C@H](CCCNC(=N)N)NC(=O)[C@H](CC(N)=O)NC(=O)[C@H](Cc1ccccc1)NC(=O)[C@@H](NC(=O)[C@H](CCCCN)NC(=O)[C@H](CCCNC(=N)N)NC(=O)CNC(=O)[C@@H](NC(=O)[C@H](CO)NC(=O)[C@H](CC(N)=O)NC(=O)CNC(=O)[C@H](CC(N)=O)NC(=O)CNC(=O)[C@H](CS)NC(=O)[C@H](CS)NC(=O)[C@H](CC(N)=O)NC(=O)[C@H](Cc1ccc(O)cc1)NC(=O)[C@H](CC(=O)O)NC(=O)CNC(=O)[C@@H](N)CCCCNS(=O)(=O)c1cccc2c(N(C)C)cccc12)[C@@H](C)O)C(C)C)C(=O)N1CCC[C@H]1C(=O)N[C@H](C(N)=O)[C@@H](C)O` [ZElan061] (H-K(Dansyl)GDYNCCGNGNSTGRKVFNRRRPSAIPT-NH2) are 0.20, 0.60 and 0.38.
In the case of `CC[C@H](C)[C@H](NC(=O)[C@H](C)NC(=O)[C@H](CO)NC(=O)[C@@H]1CCCN1C(=O)[C@H](CCCNC(=N)N)NC(=O)[C@H](CCCNC(=N)N)NC(=O)[C@H](CC(N)=O)NC(=O)[C@H](Cc1ccccc1)NC(=O)[C@@H](NC(=O)[C@H](CCCCN)NC(=O)[C@H](CCCNC(=N)N)NC(=O)CNC(=O)[C@@H](NC(=O)[C@H](CO)NC(=O)[C@H](CC(N)=O)NC(=O)CNC(=O)[C@H](CC(N)=O)NC(=O)CNC(=O)[C@H](CS)NC(=O)[C@H](CS)NC(=O)[C@H](CC(N)=O)NC(=O)[C@H](Cc1ccc(O)cc1)NC(=O)[C@H](CC(=O)O)NC(=O)CNC(=O)[C@@H]1CCCN1C(=O)[C@@H](N)CCCCNS(=O)(=O)c1cccc2c(N(C)C)cccc12)[C@@H](C)O)C(C)C)C(=O)N1CCC[C@H]1C(=O)N[C@H](C(N)=O)[C@@H](C)O` [ZElan072] (H-K(Dansyl)PGDYNCCGNGNSTGRKVFNRRPSAIPT-NH2), under setting [3], the “Binding value at 20 μg/ml” value was determined as 0.83. Further, the “Binding value at 50 μg/ml” value runs as follows: under setting [4], 0.61; under setting [5], 0.88.
